Data as given in patent US9695155B2, “Herbicidal substituted pyrimidinyloxy benzene compounds” (E. I. DU PONT DE NEMOURS AND COMPANY, priority 2013, dated 2017).

Assays:
[1] = system: kochia; experiment: Test E preemergence; assay type: in vivo, Kochia scoparia; settings: for Kochia plant response rating: scale 0 to 100 (0 no effect, 100 complete control); for Plant response rating, Kochia: scale 0 to 100, 0 no effect, 100 complete control
In short: (§1)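 Test chemicals formulated in a non-phytotoxic solvent mixture containing a surfactant were applied preemergence to seeds in silt loam soil or postemergence to plants at the 1- to 4-leaf stage in potting mix. After 14 to 21 days in a greenhouse, injury was visually rated against controls on a 0-100 scale (0 = no effect, 100 = complete control).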

[2] = system: Italian ryegrass; experiment: Test E postemergence; assay type: in vivo, Lolium multiflorum
In short: as §1

[3] = system: Brazilian crabgrass; experiment: Test E postemergence; assay type: in vivo, Digitaria horizontalis
In short: as §1

[4] = system: wild poinsettia; experiment: Test E postemergence; assay type: in vivo, Euphorbia heterophylla
In short: as §1

[5] = system: field bindweed; experiment: Test E preemergence; assay type: in vivo, Convolvulus arvensis; settings: for Field Bindweed plant response rating: scale 0 to 100 (0 no effect, 100 complete control); for Plant response rating, Field Bindweed: scale 0 to 100, 0 no effect, 100 complete control
In short: as §1

[6] = system: arrowleaf sida; experiment: Test E preemergence; assay type: in vivo, Sida rhombifolia; settings: preemergence; for Arrowleaf Sida plant response rating: scale 0 to 100 (0 no effect, 100 complete control); for Plant response rating, Arrowleaf Sida: scale 0 to 100, 0 no effect, 100 complete control
In short: as §1

[7] = system: corn; experiment: Test E preemergence; assay type: in vivo, Zea mays; settings: for Corn plant response rating: scale 0 to 100 (0 no effect, 100 complete control); for Plant response rating, Corn: scale 0 to 100, 0 no effect, 100 complete control
In short: as §1

[8] = system: arrowleaf sida; experiment: Test E postemergence; assay type: in vivo, Sida rhombifolia
In short: as §1

[9] = system: barnyardgrass; experiment: Test E postemergence; assay type: in vivo, Echinochloa crus-galli
In short: as §1

[10] = system: velvetleaf; experiment: Test E preemergence; assay type: in vivo, Abutilon theophrasti; settings: for Velvetleaf plant response rating: scale 0 to 100 (0 no effect, 100 complete control); for Plant response rating, Velvetleaf: scale 0 to 100, 0 no effect, 100 complete control
In short: as §1

[11] = system: sedge, umbrella; experiment: Test C flooded paddy test; assay type: in vivo, Cyperus difformis; settings: Flood, scale 0 to 100 (0 no effect, 100 complete control), 13 to 15 days
In short: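 Visual injury ratings against untreated controls, taken 13 to 15 days after compound was added to paddy water standing 3 cm above the soil.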

[12] = system: soybean; experiment: Test E preemergence; assay type: in vivo, Glycine max; settings: for Soybean plant response rating: scale 0 to 100 (0 no effect, 100 complete control); for Plant response rating, Soybean: scale 0 to 100, 0 no effect, 100 complete control
In short: as §1

[13] = system: giant foxtail; experiment: Test E preemergence; assay type: in vivo, Setaria faberii; settings: for Foxtail, Giant plant response rating: scale 0 to 100 (0 no effect, 100 complete control); for Plant response rating, Foxtail, Giant: scale 0 to 100, 0 no effect, 100 complete control
In short: as §1

[14] = system: ragweed; experiment: Test E preemergence; assay type: in vivo, Ambrosia elatior; settings: for Ragweed plant response rating: scale 0 to 100 (0 no effect, 100 complete control); for Plant response rating, Ragweed: scale 0 to 100, 0 no effect, 100 complete control
In short: as §1

[15] = system: lambsquarters; experiment: Test E preemergence; assay type: in vivo, Chenopodium album; settings: for Lambsquarters plant response rating: scale 0 to 100 (0 no effect, 100 complete control); for Plant response rating, Lambsquarters: scale 0 to 100, 0 no effect, 100 complete control
In short: as §1

[16] = system: goosegrass; experiment: Test E preemergence; assay type: in vivo, Eleusine indica; settings: for Goosegrass plant response rating: scale 0 to 100 (0 no effect, 100 complete control); for Plant response rating, Goosegrass: scale 0 to 100, 0 no effect, 100 complete control
In short: as §1

[17] = system: surinam grass; experiment: Test E preemergence; assay type: in vivo, Brachiaria decumbens; settings: for Surinam Grass plant response rating: scale 0 to 100 (0 no effect, 100 complete control); for Plant response rating, Surinam Grass: scale 0 to 100, 0 no effect, 100 complete control
In short: as §1

[18] = system: waterhemp; experiment: Test E preemergence; assay type: in vivo, Amaranthus rudis; settings: for Waterhemp plant response rating: scale 0 to 100 (0 no effect, 100 complete control); for Plant response rating, Waterhemp: scale 0 to 100, 0 no effect, 100 complete control
In short: as §1

[19] = Postemergence, 31 g ai/ha, scale 0 to 100
[20] = Postemergence, 62 g ai/ha, scale 0 to 100
[21] = Postemergence, 125 g ai/ha, scale 0 to 100
[22] = Postemergence, 250 g ai/ha, scale 0 to 100
[23] = postemergence, 16 g ai/ha, scale 0 to 100, 0 no effect, 100 complete control

`N#Cc1cnn(-c2c(C#N)cccc2Oc2ncc(Cl)cn2)c1` [Compound 200] was tested, and the “Kochia plant response rating” value ([1]; 31 g ai/ha) was 60, the “Kochia plant response rating” value ([1]; 62 g ai/ha) was 95 and the “Plant response rating, Kochia” value ([1]; 125 g ai/ha) was 100. For the same compound, the “Plant response rating, Kochia” value ([1]; 250 g ai/ha) was 100, the “Plant response rating, Ryegrass, Italian” value [2, 19] was 0 and the “Plant response rating, Ryegrass, Italian” value [2, 20] was 0. The “Plant response rating, Ryegrass, Italian” value [2, 21] was 0, the “Plant response rating, Ryegrass, Italian” value [2, 22] was 0 and the “Plant response rating, Ryegrass, Italian” value [2, 23] was 0. The “Plant response rating, Crabgrass, Brazil” value [3, 19] was 15, the “Plant response rating, Crabgrass, Brazil” value [3, 20] was 30 and the “Plant response rating, Crabgrass, Brazil” value [3, 21] was 50. The “Plant response rating, Crabgrass, Brazil” value [3, 22] was 60, the “Plant response rating, Crabgrass, Brazil” value [3, 23] was 10 and the “Plant response rating, Poinsettia, Wild” value [4, 19] was 80. For the same compound, the “Plant response rating, Poinsettia, Wild” value [4, 20] was 70, the “Plant response rating, Poinsettia, Wild” value [4, 21] was 90 and the “Plant response rating, Poinsettia, Wild” value [4, 22] was 90. The “Plant response rating, Poinsettia, Wild” value [4, 23] was 50, the “Field Bindweed plant response rating” value ([5]; 16 g ai/ha) was 5 and the “Field Bindweed plant response rating” value ([5]; 31 g ai/ha) was 10. The “Field Bindweed plant response rating” value ([5]; 62 g ai/ha) was 40, the “Plant response rating, Field Bindweed” value ([5]; 125 g ai/ha) was 70 and the “Plant response rating, Field Bindweed” value ([5]; 250 g ai/ha) was 95. The “Arrowleaf Sida plant response rating” value ([6]; 16 g ai/ha) was 20, the “Arrowleaf Sida plant response rating” value ([6]; 31 g ai/ha) was 20 and the “Arrowleaf Sida plant response rating” value ([6]; 62 g ai/ha) was 70. The “Plant response rating, Arrowleaf Sida” value ([6]; 125 g ai/ha) was 100, the “Plant response rating, Arrowleaf Sida” value ([6]; 250 g ai/ha) was 100 and the “Corn plant response rating” value ([7]; 16 g ai/ha) was 0. For the same compound, the “Corn plant response rating” value ([7]; 31 g ai/ha) was 5, the “Corn plant response rating” value ([7]; 62 g ai/ha) was 30 and the “Plant response rating, Corn” value ([7]; 125 g ai/ha) was 30. For the same compound, the “Plant response rating, Corn” value ([7]; 250 g ai/ha) was 75, the “Plant response rating, Arrowleaf Sida” value [8, 19] was 80 and the “Plant response rating, Arrowleaf Sida” value [8, 20] was 80. The “Plant response rating, Arrowleaf Sida” value [8, 21] was 90, the “Plant response rating, Arrowleaf Sida” value [8, 22] was 98 and the “Plant response rating, Arrowleaf Sida” value [8, 23] was 60. For the same compound, the “Plant response rating, Barnyardgrass” value [9, 19] was 0, the “Plant response rating, Barnyardgrass” value [9, 20] was 0 and the “Plant response rating, Barnyardgrass” value [9, 21] was 20. For the same compound, the “Plant response rating, Barnyardgrass” value [9, 22] was 40, the “Plant response rating, Barnyardgrass” value [9, 23] was 0 and the “Velvetleaf plant response rating” value ([10]; 31 g ai/ha) was 35. For the same compound, the “Velvetleaf plant response rating” value ([10]; 62 g ai/ha) was 80, the “Plant response rating, Velvetleaf” value ([10]; 125 g ai/ha) was 100 and the “Plant response rating, Velvetleaf” value ([10]; 250 g ai/ha) was 100. The “Plant response rating, Sedge, Umbrella” value ([11]; 31 g ai/ha) was 0, the “Plant response rating, Sedge, Umbrella” value ([11]; 62 g ai/ha) was 80 and the “Plant response rating, Sedge, Umbrella” value ([11]; 125 g ai/ha) was 90. The “Plant response rating, Sedge, Umbrella” value ([11]; 250 g ai/ha) was 90, the “Soybean plant response rating” value ([12]; 31 g ai/ha) was 25 and the “Soybean plant response rating” value ([12]; 62 g ai/ha) was 35. The “Plant response rating, Soybean” value ([12]; 125 g ai/ha) was 65, the “Plant response rating, Soybean” value ([12]; 250 g ai/ha) was 90 and the “Foxtail, Giant plant response rating” value ([13]; 16 g ai/ha) was 0. For the same compound, the “Foxtail, Giant plant response rating” value ([13]; 31 g ai/ha) was 0, the “Foxtail, Giant plant response rating” value ([13]; 62 g ai/ha) was 0 and the “Plant response rating, Foxtail, Giant” value ([13]; 125 g ai/ha) was 25. The “Plant response rating, Foxtail, Giant” value ([13]; 250 g ai/ha) was 70, the “Ragweed plant response rating” value ([14]; 31 g ai/ha) was 0 and the “Ragweed plant response rating” value ([14]; 62 g ai/ha) was 80. For the same compound, the “Plant response rating, Ragweed” value ([14]; 125 g ai/ha) was 80, the “Plant response rating, Ragweed” value ([14]; 250 g ai/ha) was 95 and the “Lambsquarters plant response rating” value ([15]; 31 g ai/ha) was 65. The “Lambsquarters plant response rating” value ([15]; 62 g ai/ha) was 80, the “Plant response rating, Lambsquarters” value ([15]; 125 g ai/ha) was 98 and the “Plant response rating, Lambsquarters” value ([15]; 250 g ai/ha) was 100. For the same compound, the “Goosegrass plant response rating” value ([16]; 31 g ai/ha) was 5, the “Goosegrass plant response rating” value ([16]; 62 g ai/ha) was 60 and the “Plant response rating, Goosegrass” value ([16]; 125 g ai/ha) was 80. For the same compound, the “Plant response rating, Goosegrass” value ([16]; 250 g ai/ha) was 90, the “Surinam Grass plant response rating” value ([17]; 31 g ai/ha) was 5 and the “Surinam Grass plant response rating” value ([17]; 62 g ai/ha) was 70. For the same compound, the “Plant response rating, Surinam Grass” value ([17]; 125 g ai/ha) was 100, the “Plant response rating, Surinam Grass” value ([17]; 250 g ai/ha) was 100 and the “Waterhemp plant response rating” value ([18]; 31 g ai/ha) was 100. For the same compound, the “Waterhemp plant response rating” value ([18]; 62 g ai/ha) was 100, the “Plant response rating, Waterhemp” value ([18]; 125 g ai/ha) was 100 and the “Plant response rating, Waterhemp” value ([18]; 250 g ai/ha) was 100.
